Test results taken from patent publication US9718828B2 (MERCK SHARP & DOHME CORP., priority 2011, dated 2017).

molecular target: hBTK (full-length BTK, 6HIS-tag cleaved) (Homo sapiens (Human), UniProt Q06187); assay: BTK enzymatic activity, IMAP-FP assay (Assay Method B); format: biochemical; details: IMAP-FP, 1.05 nM hBTK, 5 μM ATP; class 100-1000 is given as ≧100 nM-<1 μM; read-out: IC50 Btk activity values - Assay Method B
Protocol: BTK enzymatic activity was determined in an IMAP-FP assay (Immobilized Metal ion Affinity-based fluorescence Polarization; Molecular Devices). […] Phosphorylation reactions were allowed to proceed for 120 minutes and were immediately quenched by the addition of 40 μL IMAP detection beads resuspended in IMAP progressive binding buffer (beads were diluted 1:600 in 75% and 25% progressive binding buffer A and B, respectively; Molecular Devices). Plates were read on Packard microplate reader after 60 minutes binding equilibration using Fluorescence Polarization protocol.

Chain of hBTK (full-length BTK, 6HIS-tag cleaved) (Q06187 whole entry): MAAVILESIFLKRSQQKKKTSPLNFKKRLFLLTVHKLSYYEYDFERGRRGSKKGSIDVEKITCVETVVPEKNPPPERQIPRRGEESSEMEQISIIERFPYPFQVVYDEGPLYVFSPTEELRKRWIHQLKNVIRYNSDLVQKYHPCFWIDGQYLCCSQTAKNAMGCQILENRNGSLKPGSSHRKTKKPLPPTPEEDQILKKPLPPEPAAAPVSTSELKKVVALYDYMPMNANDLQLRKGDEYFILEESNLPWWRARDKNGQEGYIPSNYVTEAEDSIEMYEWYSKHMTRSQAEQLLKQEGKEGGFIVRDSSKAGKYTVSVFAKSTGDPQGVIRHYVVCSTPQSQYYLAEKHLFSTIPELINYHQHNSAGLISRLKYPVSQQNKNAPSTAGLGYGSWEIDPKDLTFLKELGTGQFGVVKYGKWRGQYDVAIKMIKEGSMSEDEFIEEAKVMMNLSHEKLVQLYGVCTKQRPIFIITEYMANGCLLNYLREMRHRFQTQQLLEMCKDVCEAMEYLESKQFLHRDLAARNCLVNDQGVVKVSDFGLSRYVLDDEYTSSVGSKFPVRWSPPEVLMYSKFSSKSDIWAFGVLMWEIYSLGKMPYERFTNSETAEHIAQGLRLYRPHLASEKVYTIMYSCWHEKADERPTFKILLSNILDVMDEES

| SMILES | IC50 [µM] |
| --- | --- |
| C[C@H]1CC[C@@H](c2nc(-c3ccc(C(=O)Nc4ccccn4)cc3)c3c(N)nccn23)CN1C(=O)C1CC1 (stereo in doubt) [Example 394, 4-{8-amino-3-[(3R,6S)-1-(cyclopropylcarbonyl)-6-methylpiperidin-3-yl]imidazo[1,5-a]pyrazin-1-yl}-N-pyridin-2-ylbenzamide] | < 0.01 |
| Cc1ccnc(NC(=O)c2ccc(-c3nc([C@@H]4CC[C@H](C)N(C(=O)C5(C)COC5)C4)n4ccnc(N)c34)cc2)c1 [Example 402, 4-(8-amino-3-{(3R,6S)-6-methyl-1-[(3-methyloxetan-3-yl)carbonyl]piperidin-3-yl}imidazo[1,5-a]pyrazin-1-yl)-N-(4-methylpyridin-2-yl)benzamide] | < 0.01 |
| C[C@@H]1CCN(C(=O)C2(C)COC2)C[C@@H]1c1nc(-c2ccc(C(=O)Nc3cc(C(F)(F)F)ccn3)cc2)c2c(N)nccn12 [Example 377, 4-(8-amino-3-{(3R,4R)-4-methyl-1-[(3-methyloxetan-3-yl)carbonyl]piperidin-3-yl}imidazo[1,5-a]pyrazin-1-yl)-N-[4-(trifluoromethyl)pyridin-2-yl]benzamide] | 0.1 to 1 |
| CCN1C[C@@H](c2nc(-c3ccc(C(=O)Nc4cc(C(F)(F)F)ccn4)cc3)c3c(N)nccn23)CC[C@@H]1C(F)(F)F [Example 406, 4-{8-amino-3-[(3S,6R)-1-ethyl-6-(trifluoromethyl)piperidin-3-yl]imidazo[1,5-a]pyrazin-1-yl}-N-[4-(trifluoromethyl)pyridin-2-yl]benzamide] | 0.01 to 0.1 |
| C[C@H]1[C@H](c2nc(-c3ccc(C(=O)Nc4cc(C(F)(F)F)ccn4)cc3)c3c(N)nccn23)CCCN1C(=O)C1(C)COC1 [Example 380, 4-(8-amino-3-{(2S,3R)-2-methyl-1-[(3-methyloxetan-3-yl)carbonyl]piperidin-3-yl}imidazo[1,5-a]pyrazin-1-yl)-N-[4-(trifluoromethyl)pyridin-2-yl]benzamide] | 0.01 to 0.1 |
| CC1(C(=O)N2CCC[C@@H](n3cc(-c4ccc(C(=O)Nc5cc(C(F)(F)F)ccn5)cc4)c4c(N)ncnc43)C2)COC1 [Example 389, 4-(4-amino-7-{(3R)-1-[(3-methyloxetan-3-yl)carbonyl]piperidin-3-yl}-7H-pyrrolo[2,3-d]pyrimidin-5-yl)-N-[4-(trifluoromethyl)pyridin-2-yl]benzamide] | < 0.01 |
| C[C@@H]1[C@H](c2nc(-c3ccc(C(=O)Nc4cc(C(F)(F)F)ccn4)cc3)c3c(N)nccn23)CCCN1C(=O)C1(C)COC1 [Example 379, 4-(8-amino-3-{(2R,3R)-2-methyl-1-[(3-methyloxetan-3-yl)carbonyl]piperidin-3-yl}imidazo[1,5-a]pyrazin-1-yl)-N-[4-(trifluoromethyl)pyridin-2-yl]benzamide] | < 0.01 |
| Cc1cc(-c2nc([C@@H]3CCCN(C(=O)C4(C)COC4)C3)n3ccnc(N)c23)ccc1C(=O)Nc1cc(C(F)(F)F)ccn1 [Example 474, 4-(8-amino-3-{(3R)-1-[(3-methyloxetan-3-yl)carbonyl]piperidin-3-yl}imidazo[1,5-a]pyrazin-1-yl)-2-methyl-N-[4-(trifluoromethyl)pyridin-2-yl]benzamide] | 0.01 to 0.1 |
| C[C@H]1C[C@@H](c2nc(-c3ccc(C(=O)Nc4cc(C(F)(F)F)ccn4)cc3)c3c(N)nccn23)CN(C(=O)C2(C)COC2)C1 [Example 374, 4-(8-amino-3-{(3R,5S)-5-methyl-1-[(3-methyloxetan-3-yl)carbonyl]piperidin-3-yl}imidazo[1,5-a]pyrazin-1-yl)-N-[4-(trifluoromethyl)pyridin-2-yl]benzamide] | < 0.01 |
| C[C@@H]1C[C@@H](c2nc(-c3ccc(C(=O)Nc4cc(C(F)(F)F)ccn4)cc3)c3c(N)nccn23)CN(C(=O)C2(C)COC2)C1 [Example 375, 4-(8-amino-3-{(3R,5R)-5-methyl-1-[(3-methyloxetan-3-yl)carbonyl]piperidin-3-yl}imidazo[1,5-a]pyrazin-1-yl)-N-[4-(trifluoromethyl)pyridin-2-yl]benzamide] | 0.01 to 0.1 |
| C[C@@H]1CC[C@@H](c2nc(-c3ccc(C(=O)Nc4cc(C(F)(F)F)ccn4)cc3)c3c(N)nccn23)CN1C(=O)C1(C)COC1 [Example 405, 4-(8-amino-3-{(3R,6R)-6-methyl-1-[(3-methyloxetan-3-yl)carbonyl]piperidin-3-yl}imidazo[1,5-a]pyrazin-1-yl)-N-[4-(trifluoromethyl)pyridin-2-yl]benzamide] | 0.1 to 1 |

Other lines, results leading:

| IC50 [µM] | SMILES |
| --- | --- |
| 0.01 to 0.1 | COCCC(=O)N1CCC[C@@H](c2nc(-c3ccc(C(=O)Nc4ccccn4)cc3O)c3c(N)nccn23)C1 [Example 475, 4-{8-amino-3-[(3R)-1-(3-methoxypropanoyl)piperidin-3-yl]imidazo[1,5-a]pyrazin-1-yl}-3-hydroxy-N-pyridin-2-ylbenzamide] |
| 0.1 to 1 | Cn1cc(CN2CCN[C@@H](c3nc(-c4ccc(C(=O)Nc5cc(C(F)(F)F)ccn5)cc4)c4c(N)nccn34)C2)cn1 [Example 566, 4-(8-amino-3-{(2R)-4-[(1-methyl-1H-pyrazol-4-yl)methyl]piperazin-2-yl}imidazo[1,5-a]pyrazin-1-yl)-N-[4-(trifluoromethyl)pyridin-2-yl]benzamide] |
| 0.01 to 0.1 | COCC1(C(=O)N2CCO[C@@H](c3nc(-c4ccc(C(=O)Nc5cc(C(F)(F)F)ccn5)cc4)c4c(N)nccn34)C2)CCC1 [Example 500, 4-{8-amino-3-[(2R)-4-{[1-(methoxymethyl)cyclobutyl]carbonyl}morpholin-2-yl]imidazo[1,5-a]pyrazin-1-yl}-N-[4-(trifluoromethyl)pyridin-2-yl]benzamide] |
| 0.01 to 0.1 | Cn1cc(CN2CCO[C@@H](c3nc(-c4ccc(C(=O)Nc5cc(C(F)(F)F)ccn5)cc4)c4c(N)nccn34)C2)cn1 [Example 495, 4-(8-amino-3-{(2R)-4-[(1-methyl-1H-pyrazol-4-yl)methyl]morpholin-2-yl}imidazo[1,5-a]pyrazin-1-yl)-N-[4-(trifluoromethyl)pyridin-2-yl]benzamide] |
| 0.1 to 1 | CN1CCN(C)[C@@H](c2nc(-c3ccc(C(=O)Nc4cc(C(F)(F)F)ccn4)cc3)c3c(N)nccn23)C1 [Example 565, 4-{8-amino-3-[(2R)-1,4-dimethylpiperazin-2-yl]imidazo[1,5-a]pyrazin-1-yl}-N-[4-(trifluoromethyl)pyridin-2-yl]benzamide] |
| < 0.01 | Nc1ncc(Br)n2c([C@@H]3CCCN(C(=O)C4CC4)C3)nc(-c3ccc(C(=O)Nc4cc(C(F)(F)F)ccn4)cc3)c12 [Example 577, (R)-4-(8-amino-5-bromo-3-(1-(cyclopropanecarbonyl)piperidin-3-yl)imidazo[1,5-a]pyrazin-1-yl)-N-(4-(trifluoromethyl)pyridin-2-yl)benzamide] |
| 0.01 to 0.1 | Cn1cc(CN2CCO[C@@H](c3nc(-c4ccc(C(=O)Nc5cc(C6CC6)ccn5)cc4)c4c(N)nccn34)C2)cn1 [Example 498, 4-(8-amino-3-{(2R)-4-[(1-methyl-1H-pyrazol-4-yl)methyl]morpholin-2-yl}imidazo[1,5-a]pyrazin-1-yl)-N-(4-cyclopropylpyridin-2-yl)benzamide] |
| 0.01 to 0.1 | CN1CCO[C@@H](c2nc(-c3ccc(C(=O)Nc4cc(C(F)(F)F)ccn4)cc3)c3c(N)nccn23)C1 [Example 497, 4-{8-amino-3-[(2R)-4-methylmorpholin-2-yl]imidazo[1,5-a]pyrazin-1-yl}-N-[4-(trifluoromethyl)pyridin-2-yl]benzamide] |
| 0.1 to 1 | CN1CCS(=O)(=O)C(c2nc(-c3ccc(C(=O)Nc4cc(C(F)(F)F)ccn4)cc3)c3c(N)nccn23)C1 (stereo not shown) [Example 570, 4-[8-amino-3-(4-methyl-1,1-dioxidothiomorpholin-2-yl)imidazo[1,5-a]pyrazin-1-yl]-N-[4-(trifluoromethyl)pyridin-2-yl]benzamide] |
| 0.01 to 0.1 | Cc1cc(C(=O)Nc2cc(C(F)(F)F)ccn2)ccc1-c1nc([C@@H]2CCCN(C(=O)C3(C)COC3)C2)n2ccnc(N)c12 [Example 479, 4-(8-amino-3-{(3R)-1-[(3-methyloxetan-3-yl)carbonyl]piperidin-3-yl}imidazo[1,5-a]pyrazin-1-yl)-3-methyl-N-[4-(trifluoromethyl)pyridin-2-yl]benzamide] |
| 0.01 to 0.1 | Nc1nccn2c([C@H]3CN(C(=O)C4(N)CCC4)CCO3)nc(-c3ccc(C(=O)Nc4cc(C(F)(F)F)ccn4)cc3)c12 [Example 499, 4-(8-amino-3-{(2R)-4-[(1-aminocyclobutyl)carbonyl]morpholin-2-yl}imidazo[1,5-a]pyrazin-1-yl)-N-[4-(trifluoromethyl)pyridin-2-yl]benzamide] |
| 0.01 to 0.1 | CCN1CCO[C@@H](c2nc(-c3ccc(C(=O)Nc4cc(C(F)(F)F)ccn4)cc3)c3c(N)nccn23)C1 [Example 496, 4-{8-amino-3-[(2R)-4-ethylmorpholin-2-yl]imidazo[1,5-a]pyrazin-1-yl}-N-[4-(trifluoromethyl)pyridin-2-yl]benzamide] |
| 0.1 to 1 | Cn1cc(CN2CCS(=O)(=O)C(c3nc(-c4ccc(C(=O)Nc5cc(C(F)(F)F)ccn5)cc4)c4c(N)nccn34)C2)cn1 (stereo not shown) [Example 569, 4-(8-amino-3-{4-[(1-methyl-1H-pyrazol-4-yl)methyl]-1,1-dioxidothiomorpholin-2-yl}imidazo[1,5-a]pyrazin-1-yl)-N-[4-(trifluoromethyl)pyridin-2-yl]benzamide] |

same assay, conditions: IMAP-FP, 1.05 nM hBTK, 5 μM ATP; read-out: IC50 Btk activity values - Assay Method B

| IC50 [µM] | SMILES |
| --- | --- |
| ≥ 1 | CC1(C(=O)N2CCN[C@@H](c3nc(-c4ccc(C(=O)Nc5cc(C(F)(F)F)ccn5)cc4)c4c(N)nccn34)C2)CC1 [Example 567, 4-(8-amino-3-{(2R)-4-[(1-methylcyclopropyl)carbonyl]piperazin-2-yl}imidazo[1,5-a]pyrazin-1-yl)-N-[4-(trifluoromethyl)pyridin-2-yl]benzamide] |
